From patent US20080051466A1, “Isoalpha acid based protein kinase modulation cancer treatment” (Metaproteomics, LLC, priority 2006, published 2008)

How the values were obtained:
Test in all cases: KinaseProfiler Assay
Format in all cases: biochemical
[1] = biological target: Fyn (Homo sapiens, UniProt P06241); settings: read-out: Fyn, % of Control
[2] = biological target: MSK1 (Homo sapiens, UniProt O75582); settings: read-out: MSK1, % of Control
[3] = biological target: Rsk2 (Homo sapiens, UniProt P51812); settings: read-out: Rsk2, % of Control
Sequence of Rsk2 (P51812 whole entry): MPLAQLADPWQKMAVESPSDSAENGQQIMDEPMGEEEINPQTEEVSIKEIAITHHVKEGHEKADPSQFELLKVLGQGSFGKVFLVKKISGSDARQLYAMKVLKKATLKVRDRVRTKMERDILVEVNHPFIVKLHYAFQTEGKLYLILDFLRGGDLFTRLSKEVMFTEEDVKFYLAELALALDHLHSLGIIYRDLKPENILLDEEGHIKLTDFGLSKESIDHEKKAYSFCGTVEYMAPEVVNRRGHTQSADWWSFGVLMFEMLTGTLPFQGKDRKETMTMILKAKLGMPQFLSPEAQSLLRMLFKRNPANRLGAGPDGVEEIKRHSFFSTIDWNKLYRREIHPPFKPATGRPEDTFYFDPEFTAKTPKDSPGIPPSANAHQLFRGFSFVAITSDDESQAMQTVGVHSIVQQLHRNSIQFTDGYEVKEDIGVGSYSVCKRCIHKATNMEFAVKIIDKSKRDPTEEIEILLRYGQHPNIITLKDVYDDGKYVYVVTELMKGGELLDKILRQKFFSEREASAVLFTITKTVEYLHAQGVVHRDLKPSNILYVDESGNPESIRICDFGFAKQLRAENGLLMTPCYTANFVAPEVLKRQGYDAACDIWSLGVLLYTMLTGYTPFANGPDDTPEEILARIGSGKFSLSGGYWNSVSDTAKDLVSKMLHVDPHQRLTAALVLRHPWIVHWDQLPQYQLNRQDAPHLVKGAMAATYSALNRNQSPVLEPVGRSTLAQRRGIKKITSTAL

[4] = biological target: CDK5/p25 (Homo sapiens, UniProt Q00535); settings: read-out: CDK5/p25, % of Control
[5] = biological target: PRAK (Homo sapiens, UniProt Q8IW41); settings: read-out: PRAK, % of Control
[6] = biological target: PI3K gamma (Homo sapiens, UniProt P48736); settings: 50 μg/ml
[7] = biological target: T1, IKKβ (Homo sapiens, UniProt O14920); settings: read-out: IKKβ, % of Control
T1 sequence (O14920 1-756): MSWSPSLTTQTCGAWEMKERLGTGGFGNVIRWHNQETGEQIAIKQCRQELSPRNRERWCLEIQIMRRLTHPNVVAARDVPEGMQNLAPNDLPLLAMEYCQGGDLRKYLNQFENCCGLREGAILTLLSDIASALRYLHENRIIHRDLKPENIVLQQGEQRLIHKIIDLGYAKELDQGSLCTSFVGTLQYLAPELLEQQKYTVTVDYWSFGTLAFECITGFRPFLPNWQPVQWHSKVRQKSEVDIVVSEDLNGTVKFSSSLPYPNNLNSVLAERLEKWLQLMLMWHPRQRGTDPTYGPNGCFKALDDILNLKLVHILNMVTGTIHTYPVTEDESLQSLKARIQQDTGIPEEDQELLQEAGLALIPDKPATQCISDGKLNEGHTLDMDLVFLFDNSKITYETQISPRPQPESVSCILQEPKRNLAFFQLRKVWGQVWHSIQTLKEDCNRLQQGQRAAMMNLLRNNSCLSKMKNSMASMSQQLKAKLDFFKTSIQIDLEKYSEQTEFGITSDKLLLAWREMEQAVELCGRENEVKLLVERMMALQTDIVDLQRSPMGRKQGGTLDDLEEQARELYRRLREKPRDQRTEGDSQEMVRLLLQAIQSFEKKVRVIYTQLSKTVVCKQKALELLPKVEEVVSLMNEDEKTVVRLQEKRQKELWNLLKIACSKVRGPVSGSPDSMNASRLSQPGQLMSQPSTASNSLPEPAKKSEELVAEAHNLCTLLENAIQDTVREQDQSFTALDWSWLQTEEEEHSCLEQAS

[8] = biological target: GSK3β (Homo sapiens, UniProt P49841); settings: read-out: GSK3β, % of Control
Sequence of GSK3β (P49841 whole entry): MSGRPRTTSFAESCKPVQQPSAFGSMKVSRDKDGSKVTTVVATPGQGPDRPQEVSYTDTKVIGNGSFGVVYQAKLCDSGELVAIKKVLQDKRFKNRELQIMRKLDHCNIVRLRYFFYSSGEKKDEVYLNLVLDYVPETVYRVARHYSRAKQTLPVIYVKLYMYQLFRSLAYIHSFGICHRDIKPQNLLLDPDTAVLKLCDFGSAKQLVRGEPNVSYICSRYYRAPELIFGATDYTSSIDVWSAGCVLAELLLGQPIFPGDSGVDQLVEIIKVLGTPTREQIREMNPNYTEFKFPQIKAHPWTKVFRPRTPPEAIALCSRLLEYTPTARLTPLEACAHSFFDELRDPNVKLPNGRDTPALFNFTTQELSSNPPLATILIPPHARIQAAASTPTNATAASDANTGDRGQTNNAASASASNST

[9] = biological target: CDK1/cyclinB (Homo sapiens, UniProt P06493); settings: read-out: CDK1/cyclinB, % of Control
Sequence of CDK1/cyclinB (P06493 whole entry): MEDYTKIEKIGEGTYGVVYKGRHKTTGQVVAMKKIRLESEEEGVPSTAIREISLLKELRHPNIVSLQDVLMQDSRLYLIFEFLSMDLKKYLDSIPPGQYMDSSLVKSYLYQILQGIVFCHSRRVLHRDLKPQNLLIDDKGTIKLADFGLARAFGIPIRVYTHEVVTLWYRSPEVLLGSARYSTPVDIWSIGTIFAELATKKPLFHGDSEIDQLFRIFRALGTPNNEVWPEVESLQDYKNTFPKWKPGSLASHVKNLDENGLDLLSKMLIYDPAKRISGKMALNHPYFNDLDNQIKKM
Sequence of CDK1/cyclinB (P14635 whole entry partner): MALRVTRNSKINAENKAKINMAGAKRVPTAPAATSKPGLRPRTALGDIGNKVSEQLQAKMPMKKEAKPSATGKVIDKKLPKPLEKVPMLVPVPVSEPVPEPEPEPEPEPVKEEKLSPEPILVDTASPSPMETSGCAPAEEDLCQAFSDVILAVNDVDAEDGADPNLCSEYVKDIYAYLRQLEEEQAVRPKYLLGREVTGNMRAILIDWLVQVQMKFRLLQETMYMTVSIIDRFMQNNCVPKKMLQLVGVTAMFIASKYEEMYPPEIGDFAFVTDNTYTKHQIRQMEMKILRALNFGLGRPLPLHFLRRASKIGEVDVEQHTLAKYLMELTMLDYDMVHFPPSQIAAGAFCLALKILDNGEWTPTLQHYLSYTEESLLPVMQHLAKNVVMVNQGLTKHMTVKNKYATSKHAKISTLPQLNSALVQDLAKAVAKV

[10] = biological target: CDK6/cyclinD3 (Homo sapiens, UniProt Q00534); settings: read-out: CDK6/cyclinD3, % of Control
Sequence of CDK6/cyclinD3 (Q00534 whole entry): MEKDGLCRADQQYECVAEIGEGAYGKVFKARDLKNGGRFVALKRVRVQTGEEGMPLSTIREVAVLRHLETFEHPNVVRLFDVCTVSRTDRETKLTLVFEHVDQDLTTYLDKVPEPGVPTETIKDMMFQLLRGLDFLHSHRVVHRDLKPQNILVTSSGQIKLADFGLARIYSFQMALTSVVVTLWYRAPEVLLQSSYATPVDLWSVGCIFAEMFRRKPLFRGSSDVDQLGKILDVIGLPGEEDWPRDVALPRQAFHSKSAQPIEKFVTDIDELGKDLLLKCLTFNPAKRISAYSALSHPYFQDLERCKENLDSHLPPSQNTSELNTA
Sequence of CDK6/cyclinD3 (P30281 whole entry partner): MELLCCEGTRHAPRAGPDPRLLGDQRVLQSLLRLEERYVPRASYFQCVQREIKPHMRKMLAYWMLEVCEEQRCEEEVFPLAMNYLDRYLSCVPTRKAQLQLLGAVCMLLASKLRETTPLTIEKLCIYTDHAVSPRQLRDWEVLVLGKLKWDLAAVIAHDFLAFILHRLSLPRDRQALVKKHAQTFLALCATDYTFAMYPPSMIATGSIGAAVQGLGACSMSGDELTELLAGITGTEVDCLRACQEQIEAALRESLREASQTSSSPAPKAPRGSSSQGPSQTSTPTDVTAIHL

[11] = biological target: Fgr (Homo sapiens, UniProt P09769); settings: read-out: Fgr, % of Control
[12] = biological target: T2, TBK1 (Homo sapiens, UniProt Q9UHD2); settings: read-out: TBK1, % of Control
T2 sequence (Q9UHD2 1-729): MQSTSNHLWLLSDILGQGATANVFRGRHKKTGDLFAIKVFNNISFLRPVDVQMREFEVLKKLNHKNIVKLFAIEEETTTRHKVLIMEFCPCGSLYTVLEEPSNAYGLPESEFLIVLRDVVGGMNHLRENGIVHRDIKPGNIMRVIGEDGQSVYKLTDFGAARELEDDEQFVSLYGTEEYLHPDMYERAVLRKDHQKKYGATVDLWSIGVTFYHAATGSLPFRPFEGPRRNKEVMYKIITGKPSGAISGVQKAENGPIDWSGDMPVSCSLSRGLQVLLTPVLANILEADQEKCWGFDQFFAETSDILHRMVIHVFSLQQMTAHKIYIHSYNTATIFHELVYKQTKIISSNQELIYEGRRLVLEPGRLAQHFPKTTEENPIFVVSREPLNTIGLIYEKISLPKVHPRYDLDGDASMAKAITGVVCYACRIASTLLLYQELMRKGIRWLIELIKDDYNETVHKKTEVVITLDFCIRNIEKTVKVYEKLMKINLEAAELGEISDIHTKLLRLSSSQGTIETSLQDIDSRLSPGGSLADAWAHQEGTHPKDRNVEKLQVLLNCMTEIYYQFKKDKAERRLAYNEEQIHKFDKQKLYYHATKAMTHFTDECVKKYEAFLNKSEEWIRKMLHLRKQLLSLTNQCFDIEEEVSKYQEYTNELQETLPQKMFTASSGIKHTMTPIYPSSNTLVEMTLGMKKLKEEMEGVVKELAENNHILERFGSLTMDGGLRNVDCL

[13] = biological target: cKit(D816H) (Homo sapiens, UniProt P10721, D816H); settings: read-out: cKit(D816H), % of Control
Sequence of cKit(D816H) (P10721 26-976 D816H): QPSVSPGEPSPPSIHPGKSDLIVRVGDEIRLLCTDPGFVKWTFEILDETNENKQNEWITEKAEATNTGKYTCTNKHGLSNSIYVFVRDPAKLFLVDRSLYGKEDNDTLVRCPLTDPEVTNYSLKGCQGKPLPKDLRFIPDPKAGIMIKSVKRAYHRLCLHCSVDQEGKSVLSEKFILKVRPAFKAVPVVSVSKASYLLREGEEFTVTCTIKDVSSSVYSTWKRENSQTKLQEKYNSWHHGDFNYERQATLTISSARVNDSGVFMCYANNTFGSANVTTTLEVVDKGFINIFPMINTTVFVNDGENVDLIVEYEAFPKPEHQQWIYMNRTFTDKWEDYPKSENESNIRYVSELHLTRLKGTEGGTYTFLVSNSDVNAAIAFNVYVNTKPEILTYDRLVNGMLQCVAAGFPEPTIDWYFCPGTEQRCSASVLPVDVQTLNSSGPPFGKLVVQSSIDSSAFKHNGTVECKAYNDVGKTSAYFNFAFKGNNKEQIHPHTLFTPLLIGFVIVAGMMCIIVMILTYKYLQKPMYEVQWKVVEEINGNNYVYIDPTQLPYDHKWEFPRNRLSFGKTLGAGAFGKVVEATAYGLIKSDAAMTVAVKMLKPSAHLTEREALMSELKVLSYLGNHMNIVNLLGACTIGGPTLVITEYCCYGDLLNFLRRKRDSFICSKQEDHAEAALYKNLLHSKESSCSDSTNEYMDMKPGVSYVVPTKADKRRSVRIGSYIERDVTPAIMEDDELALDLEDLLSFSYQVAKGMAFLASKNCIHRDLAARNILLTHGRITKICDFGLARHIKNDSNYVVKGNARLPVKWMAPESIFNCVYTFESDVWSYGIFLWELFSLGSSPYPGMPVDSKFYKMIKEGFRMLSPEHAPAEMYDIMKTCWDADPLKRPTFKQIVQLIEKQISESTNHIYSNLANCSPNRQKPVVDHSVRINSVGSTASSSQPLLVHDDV

Sequence of MSK1 (O75582 whole entry): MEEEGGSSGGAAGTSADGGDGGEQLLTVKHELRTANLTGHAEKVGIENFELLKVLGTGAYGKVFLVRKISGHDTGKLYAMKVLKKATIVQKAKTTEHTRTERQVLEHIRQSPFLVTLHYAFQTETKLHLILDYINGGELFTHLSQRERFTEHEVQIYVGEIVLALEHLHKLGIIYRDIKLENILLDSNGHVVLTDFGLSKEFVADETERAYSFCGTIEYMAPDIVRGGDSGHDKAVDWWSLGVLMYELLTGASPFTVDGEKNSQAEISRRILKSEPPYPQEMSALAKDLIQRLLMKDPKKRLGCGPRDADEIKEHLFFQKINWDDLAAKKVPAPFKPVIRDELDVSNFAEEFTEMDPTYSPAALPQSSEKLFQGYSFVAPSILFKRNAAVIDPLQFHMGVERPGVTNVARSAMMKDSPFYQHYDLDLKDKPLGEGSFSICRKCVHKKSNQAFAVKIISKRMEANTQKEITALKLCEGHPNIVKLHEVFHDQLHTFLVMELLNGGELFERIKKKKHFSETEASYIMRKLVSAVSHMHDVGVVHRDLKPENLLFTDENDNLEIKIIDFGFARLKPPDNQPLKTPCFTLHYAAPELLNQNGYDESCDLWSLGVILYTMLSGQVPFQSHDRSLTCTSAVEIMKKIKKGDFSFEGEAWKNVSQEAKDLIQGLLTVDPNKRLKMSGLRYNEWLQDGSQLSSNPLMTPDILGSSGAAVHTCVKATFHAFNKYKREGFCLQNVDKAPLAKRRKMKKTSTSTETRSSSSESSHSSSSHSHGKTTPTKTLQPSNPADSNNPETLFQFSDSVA
Sequence of Fyn (P06241 whole entry): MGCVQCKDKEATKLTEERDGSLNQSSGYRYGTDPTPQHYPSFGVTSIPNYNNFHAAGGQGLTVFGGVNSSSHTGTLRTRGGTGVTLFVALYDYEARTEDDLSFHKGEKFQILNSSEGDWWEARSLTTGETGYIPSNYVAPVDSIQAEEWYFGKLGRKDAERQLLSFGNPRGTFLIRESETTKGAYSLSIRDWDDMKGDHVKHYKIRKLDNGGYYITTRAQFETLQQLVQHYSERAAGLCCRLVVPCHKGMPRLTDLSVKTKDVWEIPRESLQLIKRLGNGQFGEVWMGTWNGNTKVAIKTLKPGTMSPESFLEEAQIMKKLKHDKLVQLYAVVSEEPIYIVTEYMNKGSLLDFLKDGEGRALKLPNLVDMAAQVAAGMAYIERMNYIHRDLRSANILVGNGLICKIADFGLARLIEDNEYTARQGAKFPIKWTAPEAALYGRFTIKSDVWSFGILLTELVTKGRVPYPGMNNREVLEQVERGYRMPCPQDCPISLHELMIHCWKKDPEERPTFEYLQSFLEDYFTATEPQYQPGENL

Question: Which results are given for COc1cc(O)c(CC=C(C)C)c(O)c1C(=O)/C=C/c1ccc(O)cc1 [Xanthohumol, xanthohumol]?
Answer: remaining activity at 1 µg/mL ([1]; 1 ug/ml): 104%; remaining activity at 5 µg/mL ([1]; 5 ug/ml): 66%; remaining activity at 25 µg/mL ([1]; 25 ug/ml): 42%; remaining activity at 50 µg/mL ([1]; 50 ug/ml): 18%; remaining activity at 1 µg/mL ([2]; 1 ug/ml): 114%; remaining activity at 5 µg/mL ([2]; 5 ug/ml): 92%; remaining activity at 25 µg/mL ([2]; 25 ug/ml): 31%; remaining activity at 1 µg/mL ([3]; 1 ug/ml): 96%; remaining activity at 5 µg/mL ([3]; 5 ug/ml): 43%; remaining activity at 25 µg/mL ([3]; 25 ug/ml): 3%; remaining activity at 25 µg/mL ([4]; 25 ug/ml): 24%; remaining activity at 50 µg/mL ([4]; 50 ug/ml): 87%; remaining activity at 1 µg/mL ([5]; 1 ug/ml): 101%; remaining activity at 5 µg/mL ([5]; 5 ug/ml): 53%; inhibition of PI3K-γ activity [6]: more inhibitory to PI3K-γ than to PI3K-β or PI3K-δ; remaining activity at 1 µg/mL ([7]; 1 ug/ml): 145%; remaining activity at 5 µg/mL ([7]; 5 ug/ml): 118%; remaining activity at 25 µg/mL ([7]; 25 ug/ml): 61%; remaining activity at 50 µg/mL ([7]; 50 ug/ml): 44%; remaining activity at 1 µg/mL ([8]; 1 ug/ml): 120%; remaining activity at 5 µg/mL ([8]; 5 ug/ml): 99%; remaining activity at 25 µg/mL ([8]; 25 ug/ml): 25%; remaining activity at 50 µg/mL ([8]; 50 ug/ml): 3%; remaining activity at 1 µg/mL ([9]; 1 ug/ml): 118%; remaining activity at 5 µg/mL ([9]; 5 ug/ml): 103%; remaining activity at 25 µg/mL ([9]; 25 ug/ml): 46%; remaining activity at 50 µg/mL ([9]; 50 ug/ml): 18%; remaining activity at 1 µg/mL ([10]; 1 ug/ml): 110%; remaining activity at 5 µg/mL ([10]; 5 ug/ml): 79%; remaining activity at 25 µg/mL ([10]; 25 ug/ml): 23%; remaining activity at 50 µg/mL ([10]; 50 ug/ml): 7%; remaining activity at 5 µg/mL ([11]; 5 ug/ml): 36%; remaining activity at 25 µg/mL ([11]; 25 ug/ml): 10%; remaining activity at 1 µg/mL ([12]; 1 ug/ml): 104%; remaining activity at 5 µg/mL ([12]; 5 ug/ml): 71%; remaining activity at 25 µg/mL ([12]; 25 ug/ml): 45%; remaining activity at 50 µg/mL ([12]; 50 ug/ml): 42%; remaining activity at 1 µg/mL ([13]; 1 ug/ml): 94%; remaining activity at 5 µg/mL ([13]; 5 ug/ml): 45%; remaining activity at 25 µg/mL ([13]; 25 ug/ml): 14%
